From US20230219979A1, “PYRAZOLO[1,5-a]PYRIDINE COMPOUND, PREPARATION METHOD THEREFOR AND USE THEREOF” (SHENZHEN ZHONGGE BIOLOGICAL TECHNOLOGY CO., LTD., priority 2019, published 2023)
Like-named read-outs stand apart in the source and are kept apart here.

Columns and labels:
Wild-type RET kinase = Wild-type RET kinase (Homo sapiens, UniProt P07949); experiment: HTRF method for testing the inhibitory activity of compounds against RET; format: biochemical
Ba/F3-KIF5B-RET cell = biological target: T1, Ba/F3-KIF5B-RET cell (Homo sapiens, UniProt P07949); experiment: CellTiter-Glo luminescence assay, inhibitory activity against Ba/F3-KIF5B-RET cell; format: cell-based
T1 construct: fused on or other part: P33176 (Kinesin-1 heavy chain)
T1 sequence (P07949 whole entry, stated change not applied, the tested form may be a part): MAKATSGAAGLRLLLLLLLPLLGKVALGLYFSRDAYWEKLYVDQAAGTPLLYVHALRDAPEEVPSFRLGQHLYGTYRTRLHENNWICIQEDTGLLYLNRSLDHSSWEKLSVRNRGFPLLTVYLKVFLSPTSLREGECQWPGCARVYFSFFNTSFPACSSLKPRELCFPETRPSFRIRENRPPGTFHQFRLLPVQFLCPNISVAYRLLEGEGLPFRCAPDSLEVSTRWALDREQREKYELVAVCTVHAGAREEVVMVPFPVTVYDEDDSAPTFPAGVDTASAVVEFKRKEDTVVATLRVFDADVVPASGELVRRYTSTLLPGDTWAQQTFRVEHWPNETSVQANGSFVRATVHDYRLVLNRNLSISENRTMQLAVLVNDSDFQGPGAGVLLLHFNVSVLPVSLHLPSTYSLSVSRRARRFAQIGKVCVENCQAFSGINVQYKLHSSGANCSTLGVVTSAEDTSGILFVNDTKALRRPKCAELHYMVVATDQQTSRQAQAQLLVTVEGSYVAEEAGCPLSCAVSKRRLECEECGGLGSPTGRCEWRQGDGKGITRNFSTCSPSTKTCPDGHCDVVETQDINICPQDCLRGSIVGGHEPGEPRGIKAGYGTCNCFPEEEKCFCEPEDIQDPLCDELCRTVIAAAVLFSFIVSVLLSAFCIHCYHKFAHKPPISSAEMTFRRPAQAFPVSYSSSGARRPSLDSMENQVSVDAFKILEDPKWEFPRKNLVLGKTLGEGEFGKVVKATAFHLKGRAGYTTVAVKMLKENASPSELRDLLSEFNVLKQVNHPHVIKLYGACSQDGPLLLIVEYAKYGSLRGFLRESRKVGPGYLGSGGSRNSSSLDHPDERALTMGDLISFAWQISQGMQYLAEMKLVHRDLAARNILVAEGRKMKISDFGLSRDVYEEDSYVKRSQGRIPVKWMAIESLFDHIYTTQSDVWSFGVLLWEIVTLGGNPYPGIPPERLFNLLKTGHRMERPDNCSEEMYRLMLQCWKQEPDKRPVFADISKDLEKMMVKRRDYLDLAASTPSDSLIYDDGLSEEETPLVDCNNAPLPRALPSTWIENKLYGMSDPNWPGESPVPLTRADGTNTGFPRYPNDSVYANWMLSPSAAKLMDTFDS
Excerpt: (C) In Vitro Screening Experiment - CellTiter-Glo Luminescence Assay for Testing The inhibitory activity of compounds against Ba/F3-KIF5B-RET cell
• 1. The mammalian cell expression vector containing human KIF5B-RET cDNA was introduced into Ba/F3 cells using the Neon® transfection system method, and the surviving clones screened by puromycin were subjected to cell growth inhibitory function experiments and Western blotting to verify cell lines with stable and high expression of RET. • 2. Cells were cultured in RPMI 1640 medium containing 10% fetal bovine serum, 1% penicillin-streptomycin, and 2 µg/mL puromycin, and then placed in a 37° C., 5% carbon dioxide cell incubator. • 3. The test compound (5 mM stock) was diluted 2.5 folds to […] with 100% dimethyl sulfoxide; and the compound was diluted into 10 concentrations at an equal ratio of 1:3 in a 384-well dilution plate. • 4. 0.2 µL of the serially diluted compound was added to a 384-well cell culture plate (Corning, 3570) using an Echo 550 pipetting system, 2 replicate wells for each concentration, and the final concentration of dimethyl sulfoxide was 0.5% (v/v). The gradient concentrations of the test compound were 5000, 1666.7, 555.5, 185.18, 61.72, 20.57, 6.858, 2.286, 0.764, 0.254 nM. • 5. 40 µL of Ba/F3-KIF5B-RET cell suspension containing 800 cells was added to each well, and incubated for 72 h in a 5% CO2 cell incubator. • 6. 20 µL of Cell Titer-Glo reagent was added to each well of the cell culture plate, and the culture system was then shaken and mixed thoroughly for 2 min to lyse the cells, the cells were then incubated at room temperature for 30 min, and the […] signal values were then read with an Envision 2104 microplate reader. • 7. By fitting the data with XLFit 5.0 based on the parameters formula, the IC50 value was calculated as: • [formula]

[1] = HTRF, read-out: Wild-type RET kinase
[2] = 72 h, read-out: Ba/F3-KIF5B-RET cell activity

Sequence of Wild-type RET kinase (P07949 29-1114): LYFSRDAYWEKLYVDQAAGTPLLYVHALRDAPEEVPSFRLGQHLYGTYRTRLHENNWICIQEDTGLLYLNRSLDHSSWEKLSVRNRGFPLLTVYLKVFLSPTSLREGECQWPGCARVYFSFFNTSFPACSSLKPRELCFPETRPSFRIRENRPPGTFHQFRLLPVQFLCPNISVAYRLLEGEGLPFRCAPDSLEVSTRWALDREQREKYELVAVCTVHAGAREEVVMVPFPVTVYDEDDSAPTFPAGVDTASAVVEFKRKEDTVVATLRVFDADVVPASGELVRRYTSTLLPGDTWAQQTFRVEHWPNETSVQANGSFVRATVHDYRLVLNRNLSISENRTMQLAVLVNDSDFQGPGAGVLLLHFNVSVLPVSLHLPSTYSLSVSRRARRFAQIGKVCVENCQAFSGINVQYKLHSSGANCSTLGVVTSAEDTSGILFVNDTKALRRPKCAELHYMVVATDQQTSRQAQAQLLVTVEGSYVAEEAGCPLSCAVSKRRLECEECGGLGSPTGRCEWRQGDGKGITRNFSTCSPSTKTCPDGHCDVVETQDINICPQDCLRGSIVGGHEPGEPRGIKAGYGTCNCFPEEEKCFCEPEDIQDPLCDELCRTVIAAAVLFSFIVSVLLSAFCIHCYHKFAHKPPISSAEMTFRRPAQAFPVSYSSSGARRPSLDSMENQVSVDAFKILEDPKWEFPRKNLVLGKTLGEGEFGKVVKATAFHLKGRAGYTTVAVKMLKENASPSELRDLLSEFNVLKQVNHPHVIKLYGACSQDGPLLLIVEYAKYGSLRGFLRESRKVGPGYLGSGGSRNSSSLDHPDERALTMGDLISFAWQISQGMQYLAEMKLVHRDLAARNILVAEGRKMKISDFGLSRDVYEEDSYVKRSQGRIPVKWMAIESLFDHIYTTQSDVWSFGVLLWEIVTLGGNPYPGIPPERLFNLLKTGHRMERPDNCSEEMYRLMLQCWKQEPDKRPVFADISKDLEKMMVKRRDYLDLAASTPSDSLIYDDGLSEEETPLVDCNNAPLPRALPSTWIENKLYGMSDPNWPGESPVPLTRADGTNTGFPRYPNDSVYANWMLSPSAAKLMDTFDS

Molecule | IC50 (Wild-type RET kinase; [1]) | GI50 (Ba/F3-KIF5B-RET cell; [2]) | IC50 (Wild-type RET kinase) | GI50 (Ba/F3-KIF5B-RET cell; read-out: Ba/F3-KIF5B-RET cell activity, 72 h)
COc1ccc(CN2CCN(c3ccc(-c4cc(OCCN5CC6CCC5C6)cn5ncc(C#N)c45)cn3)CC2)cn1 (centres unmarked) [Compound 15, 6-(2-(2-azabicyclo[2.2.1]hept-2-yl)ethoxy)-4-(6-(4-((6-methoxypyridin-3-yl)methyl)piperazin-1-yl)pyridin-3-yl)pyrazolo[1,5-a]pyridine-3-carbonitrile] | 1.4 nM | 225 nM |  | 
COc1ccc(CN2C3CC2CN(c2cnc(-c4cc(OCCN5CCC6(CCCNC6=O)CC5)cn5ncc(C#N)c45)cn2)C3)cn1 [Compound 35, 4-(5-(6-((6-methoxypyridin-3-yl)methyl)-3,6-diazabicyclo[3.1.1]heptan-3-yl)pyrazin-2-yl)-6-(2-(-1-oxo-2,9-diazaspiro[5.5]undecan-9-yl)ethoxy)pyrazolo[1,5-a]pyridine-3-carbonitrile] | 3.08 nM | 81.5 nM |  | 
COc1ccc(CN2C3CC2CN(c2cnc(-c4cc(OCCN5CCC6(COC6)C5)cn5ncc(C#N)c45)cn2)C3)cn1 [Compound 20, 6-(2-(2-oxa-6-azaspiro[3.4]oct-6-yl)ethoxy)-4-(5-(6-((6-methoxypyridin-3-yl)methyl)-3,6-diazabicyclo[3.1.1]heptan-3-yl)pyrazin-2-yl)pyrazolo[1,5-a]pyridine-3-carbonitrile] | 2.63 nM | 19.1 nM |  | 
ethyl 4(6-(4-(6-methoxypyridin-3-yl)piperazin-1-yl)pyridin-3-yl)-6-(1-methyl-1H-pyrazol-4-yl)H-pyrazolo[1,5-a]pyridine-3-carboxylate [Compound 1] | 3.1 nM | 271 nM |  | 
COc1ccc(CN2C3CC2CN(c2cnc(-c4cc(OCCN5CCC6(CCCCC6)CC5)cn5ncc(C#N)c45)cn2)C3)cn1 [Compound 24, 6-(2-(3-azaspiro[5.5]undecane-3-yl)ethoxy)-4-(5-(6-((6-methoxypyridin-3-yl)methyl)-3,6diazabicyclo[3.1.1]heptan-3-yl)pyrazin-2-yl)pyrazolo[1,5-a]pyridine-3-carbonitrile] | 2.19 nM | 21.3 nM |  | 
COc1ccc(CN2C3CC2CN(c2cnc(-c4cc(OCCN5C6CCC5COC6)cn5ncc(C#N)c45)cn2)C3)cn1 [Compound 31, 6-(2-(3-oxa-8-azabicyclo[3.2.1]oct-8-yl)ethoxy)-4-(5-(6-((6-methoxypyridine-3-yl)methyl)-3,6diazabicyclo[3.1.1]heptan-3-yl)pyrazin-2-yl)pyrazolo[1,5-a]pyridine-3-carbonitrile] | 1.4 nM | 5.1 nM |  | 
COc1ccc(CN2C3CC2CN(c2cnc(-c4cc(OCCN5CCC6(CCNC6)CC5)cn5ncc(C#N)c45)cn2)C3)cn1 [Compound 21] | 0.72 nM | 192 nM |  | 
COc1ccc(CN2C3CC2CN(c2cnc(-c4cc(NCc5ccccn5)cn5ncc(C#N)c45)cn2)C3)cn1 [Compound 28, 4-(5-(6-((6-methoxypyridin-3-yl)methyl)-3,6-diazabicyclo[3.1.1]heptan-3-yl)pyrazin-2-yl)-6-((pyridin-2-ylmethyl)amino)pyrazolo[1,5-a]pyridine-3-carbonitrile] | 1.3 nM | 12.6 nM |  | 
COc1ccc(CN2C3CC2CN(c2cnc(-c4cc(OC(=O)N5CCOCC5)cn5ncc(C#N)c45)cn2)C3)cn1 [Compound 27, 3-cyano-4-(5-(6-((6-methoxypyridin-3-yl)methyl)-3,6-diazabicyclo[3.1.1]heptan-3-yl)pyrazin-2-yl]pyrazolo[1,5-a]pyridin-6-ylmorpholine-4-carboxylate] |  |  | 15.7 nM | 51.7 nM
COc1ccc(CN2CCN(c3ccc(-c4cc(OCCN5CC6CC6C5)cn5ncc(C#N)c45)cn3)CC2)cn1 (centres unmarked) [Compound 16, 6-(2-(3-azabicyclo[3.1.0]hex-3-yl)ethoxy)-4-(6-(4-((6-methoxypyridin-3-yl)methyl)piperazin-1-yl)pyridin-3-yl)pyrazolo[1,5-a]pyridine-3-carbonitrile] | 1.1 nM | 203 nM |  | 
